In ChEMBL document CHEMBL4800728, “Data for DCP probe JNJ-54119936” (2021):

How the values were obtained:
[1] = target: Nuclear receptor ROR-alpha (Homo sapiens) (UniProt P35398); assay: ThermoFluor Binding Assay (RORA)
[2] = target: Activin receptor type-1B (Homo sapiens) (UniProt P36896); assay: Alk4 Invitrogen kinase panel; conditions: Compound concentration 10.0 uM
[3] = target: Calcium/calmodulin-dependent protein kinase type II subunit alpha (Homo sapiens) (UniProt Q9UQM7); assay: CaMKIIalpha Invitrogen kinase panel; conditions: Compound concentration 10.0 uM
[4] = target: Receptor-type tyrosine-protein kinase FLT3 (Homo sapiens) (UniProt P36888); assay: Flt3 Invitrogen kinase panel; conditions: Compound concentration 10.0 uM
[5] = target: Mitogen-activated protein kinase 3 (Homo sapiens) (UniProt P27361); assay: ERK1 Invitrogen kinase panel; conditions: Compound concentration 10.0 uM
[6] = target: cAMP-dependent protein kinase catalytic subunit alpha (Homo sapiens) (UniProt P17612); assay: PKA Invitrogen kinase panel; conditions: Compound concentration 10.0 uM
[7] = target: T1, Bile acid receptor (Homo sapiens) (UniProt Q96RI1); assay: FXR In-house nuclear receptor screen; conditions: Compound concentration 3.0 uM
T1 sequence (whole entry): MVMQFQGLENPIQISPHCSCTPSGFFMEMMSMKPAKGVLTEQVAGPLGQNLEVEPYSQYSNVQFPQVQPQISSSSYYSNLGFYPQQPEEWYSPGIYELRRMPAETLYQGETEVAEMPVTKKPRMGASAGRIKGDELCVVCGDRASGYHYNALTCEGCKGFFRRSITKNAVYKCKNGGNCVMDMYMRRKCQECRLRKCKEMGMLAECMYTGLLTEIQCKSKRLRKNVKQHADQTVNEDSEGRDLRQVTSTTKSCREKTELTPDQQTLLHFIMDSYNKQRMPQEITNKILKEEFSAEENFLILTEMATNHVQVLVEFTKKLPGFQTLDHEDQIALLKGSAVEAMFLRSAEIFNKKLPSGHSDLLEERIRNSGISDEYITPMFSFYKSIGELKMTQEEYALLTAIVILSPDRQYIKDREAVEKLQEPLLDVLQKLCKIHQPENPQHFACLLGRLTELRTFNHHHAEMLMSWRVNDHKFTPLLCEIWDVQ

[8] = target: Estrogen receptor beta (Homo sapiens) (UniProt Q92731); assay: ERbeta In-house nuclear receptor screen; conditions: Compound concentration 3.0 uM
[9] = target: Adenosine receptor A3 (Homo sapiens) (UniProt P0DMS8); assay: A3 (h) CEREP screen
[10] = target: Endothelin-1 receptor (Homo sapiens) (UniProt P25101); assay: ETA (h) CEREP screen; conditions: Compound concentration 10.0 uM
[11] = target: Histamine H1 receptor (Homo sapiens) (UniProt P35367); assay: H1 (h) CEREP screen; conditions: Compound concentration 1.0 uM
[12] = target: Substance-K receptor (Homo sapiens) (UniProt P21452); assay: NK2 (h) CEREP screen; conditions: Compound concentration 10.0 uM
[13] = target: Delta-type opioid receptor (Homo sapiens) (UniProt P41143); assay: Delta2 (h) CEREP screen; conditions: Compound concentration 10.0 uM
[14] = target: Kappa-type opioid receptor (Homo sapiens) (UniProt P41145); assay: Kappa (KOP) (h) CEREP screen; conditions: Compound concentration 10.0 uM
[15] = target: Serotonin 3 (5-HT3) receptor (Homo sapiens) (UniProt P46098+A5X5Y0+O95264+Q70Z44+Q8WXA8); assay: 5-HT3 (h) CEREP screen; assay type: protein-complex assay; conditions: Compound concentration 10.0 uM
[16] = target: Sodium-dependent serotonin transporter (Homo sapiens) (UniProt P31645); assay: 5-HT transporter (h) CEREP screen; conditions: Compound concentration 10.0 uM
[17] = target: T2, Peroxisome proliferator-activated receptor gamma (Homo sapiens) (UniProt P37231); assay: PPARgamma Indigo Bioscience nuclear receptor screen
T2 sequence (whole entry): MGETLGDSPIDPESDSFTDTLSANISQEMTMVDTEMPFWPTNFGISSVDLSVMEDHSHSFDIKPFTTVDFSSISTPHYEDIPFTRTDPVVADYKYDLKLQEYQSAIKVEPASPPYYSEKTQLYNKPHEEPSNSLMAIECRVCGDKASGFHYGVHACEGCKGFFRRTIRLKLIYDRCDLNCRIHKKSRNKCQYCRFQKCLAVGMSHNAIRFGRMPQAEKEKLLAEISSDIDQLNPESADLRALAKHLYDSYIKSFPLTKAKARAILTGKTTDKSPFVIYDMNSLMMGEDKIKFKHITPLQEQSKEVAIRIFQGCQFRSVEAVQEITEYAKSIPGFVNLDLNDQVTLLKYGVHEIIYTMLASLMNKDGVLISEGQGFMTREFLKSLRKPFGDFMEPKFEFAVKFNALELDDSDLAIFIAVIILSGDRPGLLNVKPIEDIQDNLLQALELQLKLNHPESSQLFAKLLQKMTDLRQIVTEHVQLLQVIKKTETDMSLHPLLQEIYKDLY

[18] = target: 5-hydroxytryptamine receptor 2B (Homo sapiens) (UniProt P41595); conditions: Compound concentration 10.0 uM
[19] = target: 5-hydroxytryptamine receptor 3A (Homo sapiens) (UniProt P46098); conditions: Compound concentration 10.0 uM
[20] = target: Sodium-dependent noradrenaline transporter (Homo sapiens) (UniProt P23975); conditions: Compound concentration 10.0 uM
[21] = target: Histamine H1 receptor (Homo sapiens) (UniProt P35367); conditions: Compound concentration 10.0 uM
[22] = target: Alpha-1A adrenergic receptor (Homo sapiens) (UniProt P35348); conditions: Compound concentration 10.0 uM
[23] = target: Alpha-2B adrenergic receptor (Homo sapiens) (UniProt P18089); conditions: Compound concentration 10.0 uM
[24] = target: Beta-2 adrenergic receptor (Homo sapiens) (UniProt P07550); conditions: Compound concentration 10.0 uM
[25] = target: T3, Muscarinic acetylcholine receptor M1 (Homo sapiens) (UniProt P11229); conditions: Compound concentration 10.0 uM
T3 sequence (whole entry): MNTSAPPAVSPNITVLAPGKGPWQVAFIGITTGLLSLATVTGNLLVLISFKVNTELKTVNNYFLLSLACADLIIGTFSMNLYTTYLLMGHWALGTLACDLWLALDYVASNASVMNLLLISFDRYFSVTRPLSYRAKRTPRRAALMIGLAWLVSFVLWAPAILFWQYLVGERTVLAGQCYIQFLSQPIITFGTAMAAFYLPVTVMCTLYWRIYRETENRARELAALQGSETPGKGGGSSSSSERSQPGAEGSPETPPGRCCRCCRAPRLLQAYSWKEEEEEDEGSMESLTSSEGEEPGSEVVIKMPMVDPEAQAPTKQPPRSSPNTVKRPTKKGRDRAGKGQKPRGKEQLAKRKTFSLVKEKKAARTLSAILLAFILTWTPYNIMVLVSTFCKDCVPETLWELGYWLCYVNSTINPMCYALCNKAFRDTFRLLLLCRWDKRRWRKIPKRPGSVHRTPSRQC

[26] = target: Muscarinic acetylcholine receptor M4 (Homo sapiens) (UniProt P08173); conditions: Compound concentration 10.0 uM
Rattus norvegicus = organism: Rattus norvegicus; conditions: Compound concentration 10.0 uM
[27] = target: Nuclear receptor ROR-gamma (Homo sapiens) (UniProt P51449)

Chain of Adenosine receptor A3 (Homo sapiens) (P0DMS8 whole entry): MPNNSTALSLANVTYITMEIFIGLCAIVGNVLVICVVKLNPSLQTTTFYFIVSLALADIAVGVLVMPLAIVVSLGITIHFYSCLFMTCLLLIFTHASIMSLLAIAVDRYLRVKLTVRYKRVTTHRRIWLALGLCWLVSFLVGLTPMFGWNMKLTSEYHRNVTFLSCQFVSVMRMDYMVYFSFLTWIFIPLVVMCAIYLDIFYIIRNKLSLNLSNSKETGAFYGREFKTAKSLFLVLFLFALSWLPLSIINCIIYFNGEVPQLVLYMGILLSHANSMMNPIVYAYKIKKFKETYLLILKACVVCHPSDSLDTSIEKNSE
Chain of Histamine H1 receptor (Homo sapiens) (P35367 whole entry): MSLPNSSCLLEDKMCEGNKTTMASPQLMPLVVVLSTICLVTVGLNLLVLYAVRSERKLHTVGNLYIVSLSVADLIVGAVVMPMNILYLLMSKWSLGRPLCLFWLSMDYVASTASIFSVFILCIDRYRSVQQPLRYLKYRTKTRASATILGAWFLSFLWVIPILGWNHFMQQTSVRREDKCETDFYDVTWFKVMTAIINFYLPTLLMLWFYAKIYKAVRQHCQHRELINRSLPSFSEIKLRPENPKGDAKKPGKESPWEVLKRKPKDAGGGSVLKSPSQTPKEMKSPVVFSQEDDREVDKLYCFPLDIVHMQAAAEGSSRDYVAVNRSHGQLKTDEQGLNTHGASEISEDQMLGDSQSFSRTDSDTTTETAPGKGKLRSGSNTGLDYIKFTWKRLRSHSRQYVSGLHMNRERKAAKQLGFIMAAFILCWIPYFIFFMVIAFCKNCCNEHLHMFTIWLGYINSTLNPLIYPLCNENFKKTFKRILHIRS
Chain of Alpha-2B adrenergic receptor (Homo sapiens) (P18089 whole entry): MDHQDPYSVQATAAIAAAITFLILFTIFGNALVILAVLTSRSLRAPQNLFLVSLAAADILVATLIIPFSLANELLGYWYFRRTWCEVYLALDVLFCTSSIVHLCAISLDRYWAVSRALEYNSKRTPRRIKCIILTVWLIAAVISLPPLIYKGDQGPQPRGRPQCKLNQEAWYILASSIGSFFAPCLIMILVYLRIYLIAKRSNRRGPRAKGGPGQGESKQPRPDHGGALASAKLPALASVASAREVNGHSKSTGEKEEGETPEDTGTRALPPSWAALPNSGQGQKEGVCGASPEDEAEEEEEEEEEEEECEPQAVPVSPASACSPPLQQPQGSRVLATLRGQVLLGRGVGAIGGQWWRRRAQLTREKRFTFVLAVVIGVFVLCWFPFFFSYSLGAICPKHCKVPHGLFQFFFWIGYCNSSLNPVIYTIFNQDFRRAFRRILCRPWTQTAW
Chain of Beta-2 adrenergic receptor (Homo sapiens) (P07550 whole entry, looked up): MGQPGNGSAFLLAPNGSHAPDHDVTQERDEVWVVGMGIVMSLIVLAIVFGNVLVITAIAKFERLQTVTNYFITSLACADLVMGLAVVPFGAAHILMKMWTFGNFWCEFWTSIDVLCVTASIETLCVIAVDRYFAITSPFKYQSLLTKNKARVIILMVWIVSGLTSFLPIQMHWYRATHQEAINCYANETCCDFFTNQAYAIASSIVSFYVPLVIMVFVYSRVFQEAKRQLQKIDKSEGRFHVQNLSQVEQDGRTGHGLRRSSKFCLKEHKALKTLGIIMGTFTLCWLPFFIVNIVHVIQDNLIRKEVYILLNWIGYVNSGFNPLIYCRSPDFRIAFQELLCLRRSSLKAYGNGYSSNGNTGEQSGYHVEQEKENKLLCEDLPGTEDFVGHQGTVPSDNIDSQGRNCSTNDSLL
Chain of Sodium-dependent noradrenaline transporter (Homo sapiens) (P23975 whole entry): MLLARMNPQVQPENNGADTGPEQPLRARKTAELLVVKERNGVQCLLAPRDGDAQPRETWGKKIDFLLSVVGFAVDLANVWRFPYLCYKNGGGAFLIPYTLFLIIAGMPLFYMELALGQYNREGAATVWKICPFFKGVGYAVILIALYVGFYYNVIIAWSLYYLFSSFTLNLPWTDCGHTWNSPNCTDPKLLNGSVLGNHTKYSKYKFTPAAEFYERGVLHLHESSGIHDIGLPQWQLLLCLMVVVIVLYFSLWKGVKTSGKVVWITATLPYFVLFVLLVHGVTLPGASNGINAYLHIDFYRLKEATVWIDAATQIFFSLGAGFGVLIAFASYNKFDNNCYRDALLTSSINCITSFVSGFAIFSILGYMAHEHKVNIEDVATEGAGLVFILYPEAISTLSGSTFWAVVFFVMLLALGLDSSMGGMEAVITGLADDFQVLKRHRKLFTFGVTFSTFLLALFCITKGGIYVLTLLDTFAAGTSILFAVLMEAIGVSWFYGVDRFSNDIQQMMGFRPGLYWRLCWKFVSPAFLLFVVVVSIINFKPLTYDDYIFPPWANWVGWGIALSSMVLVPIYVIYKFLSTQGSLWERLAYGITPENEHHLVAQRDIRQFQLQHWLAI
Chain of Substance-K receptor (Homo sapiens) (P21452 whole entry): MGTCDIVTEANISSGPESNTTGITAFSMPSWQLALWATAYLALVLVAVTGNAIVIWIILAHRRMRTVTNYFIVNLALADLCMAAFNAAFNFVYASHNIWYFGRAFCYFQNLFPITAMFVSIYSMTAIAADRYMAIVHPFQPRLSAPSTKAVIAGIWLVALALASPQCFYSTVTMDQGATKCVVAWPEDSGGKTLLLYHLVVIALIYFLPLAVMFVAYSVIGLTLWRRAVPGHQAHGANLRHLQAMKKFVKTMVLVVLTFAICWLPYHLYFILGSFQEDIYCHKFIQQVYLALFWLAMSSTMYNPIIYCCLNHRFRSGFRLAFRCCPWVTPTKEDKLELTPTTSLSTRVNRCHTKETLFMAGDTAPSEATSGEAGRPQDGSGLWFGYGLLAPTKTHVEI
Chain of Kappa-type opioid receptor (Homo sapiens) (P41145 whole entry): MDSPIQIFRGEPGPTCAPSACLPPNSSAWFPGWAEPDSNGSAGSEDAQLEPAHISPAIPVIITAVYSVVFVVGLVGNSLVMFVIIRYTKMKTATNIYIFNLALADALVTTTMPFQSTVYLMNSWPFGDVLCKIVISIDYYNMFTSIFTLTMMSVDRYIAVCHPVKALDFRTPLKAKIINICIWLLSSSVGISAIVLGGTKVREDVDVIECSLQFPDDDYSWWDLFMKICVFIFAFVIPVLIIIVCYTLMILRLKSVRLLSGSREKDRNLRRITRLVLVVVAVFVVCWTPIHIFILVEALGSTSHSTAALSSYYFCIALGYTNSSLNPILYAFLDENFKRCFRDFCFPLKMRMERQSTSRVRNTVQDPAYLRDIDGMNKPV
Chain of 5-hydroxytryptamine receptor 3A (Homo sapiens) (P46098 whole entry): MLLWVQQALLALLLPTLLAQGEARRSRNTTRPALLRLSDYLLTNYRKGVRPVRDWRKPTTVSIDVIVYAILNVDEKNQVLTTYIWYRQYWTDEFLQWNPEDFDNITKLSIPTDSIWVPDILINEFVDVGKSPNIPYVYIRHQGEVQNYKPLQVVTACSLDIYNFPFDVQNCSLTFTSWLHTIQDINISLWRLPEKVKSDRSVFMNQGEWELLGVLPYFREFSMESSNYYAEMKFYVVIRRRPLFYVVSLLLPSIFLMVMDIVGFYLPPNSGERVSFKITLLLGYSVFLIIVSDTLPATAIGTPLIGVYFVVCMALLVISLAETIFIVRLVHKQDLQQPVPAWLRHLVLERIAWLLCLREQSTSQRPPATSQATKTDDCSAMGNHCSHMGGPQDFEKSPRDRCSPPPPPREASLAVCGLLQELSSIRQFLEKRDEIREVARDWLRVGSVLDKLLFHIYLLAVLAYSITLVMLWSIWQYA
Chain of Receptor-type tyrosine-protein kinase FLT3 (Homo sapiens) (P36888 whole entry): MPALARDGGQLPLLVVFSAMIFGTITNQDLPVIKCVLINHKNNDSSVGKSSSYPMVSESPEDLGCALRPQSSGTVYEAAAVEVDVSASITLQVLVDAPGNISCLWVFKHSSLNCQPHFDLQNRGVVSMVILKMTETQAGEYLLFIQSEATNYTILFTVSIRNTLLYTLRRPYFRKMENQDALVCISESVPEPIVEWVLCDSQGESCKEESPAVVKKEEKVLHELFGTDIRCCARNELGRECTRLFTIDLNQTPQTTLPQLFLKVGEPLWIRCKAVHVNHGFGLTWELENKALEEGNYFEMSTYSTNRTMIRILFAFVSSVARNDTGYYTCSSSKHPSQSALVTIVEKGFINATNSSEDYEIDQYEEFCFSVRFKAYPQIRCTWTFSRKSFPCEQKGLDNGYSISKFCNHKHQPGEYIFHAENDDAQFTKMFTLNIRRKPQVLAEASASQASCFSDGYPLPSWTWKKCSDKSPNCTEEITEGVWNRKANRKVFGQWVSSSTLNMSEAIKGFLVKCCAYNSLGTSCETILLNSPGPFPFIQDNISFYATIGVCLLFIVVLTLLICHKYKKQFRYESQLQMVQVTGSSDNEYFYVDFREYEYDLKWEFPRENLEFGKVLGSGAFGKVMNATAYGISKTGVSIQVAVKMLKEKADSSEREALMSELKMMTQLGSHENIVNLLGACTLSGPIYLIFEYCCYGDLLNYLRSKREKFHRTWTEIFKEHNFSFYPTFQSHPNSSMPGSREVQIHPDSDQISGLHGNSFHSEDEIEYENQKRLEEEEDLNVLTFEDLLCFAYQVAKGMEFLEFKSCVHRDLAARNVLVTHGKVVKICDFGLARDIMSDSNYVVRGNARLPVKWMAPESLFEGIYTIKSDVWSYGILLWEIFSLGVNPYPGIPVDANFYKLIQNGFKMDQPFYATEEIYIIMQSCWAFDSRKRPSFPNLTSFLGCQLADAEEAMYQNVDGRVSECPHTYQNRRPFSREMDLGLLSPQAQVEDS
Chain of Endothelin-1 receptor (Homo sapiens) (P25101 whole entry): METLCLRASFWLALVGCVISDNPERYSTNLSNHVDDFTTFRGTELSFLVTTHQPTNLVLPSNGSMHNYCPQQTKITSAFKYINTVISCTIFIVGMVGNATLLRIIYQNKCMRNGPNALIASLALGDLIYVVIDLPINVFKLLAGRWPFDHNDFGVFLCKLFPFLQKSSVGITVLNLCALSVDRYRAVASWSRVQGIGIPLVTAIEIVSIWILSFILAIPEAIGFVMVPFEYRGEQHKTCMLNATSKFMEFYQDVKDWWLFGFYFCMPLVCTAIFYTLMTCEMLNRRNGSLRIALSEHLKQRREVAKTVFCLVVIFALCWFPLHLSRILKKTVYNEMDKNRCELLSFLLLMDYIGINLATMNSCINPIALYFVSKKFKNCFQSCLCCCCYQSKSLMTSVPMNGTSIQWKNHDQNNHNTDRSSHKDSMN

qKD [1]: > 75 µM | inhibition [2]: -5% | inhibition [3]: 14% | inhibition [4]: 4% | inhibition [5]: 10% | inhibition [6]: 1% | inhibition [7]: 33% | inhibition [8]: 31.2% | inhibition ([9]; Compound concentration 1.0 uM): 45% | inhibition ([9]; Compound concentration 10.0 uM): 25% | inhibition [10]: 12% | inhibition [11]: 10% | inhibition [12]: 23% | inhibition [13]: 11% | inhibition [14]: 12% | inhibition [15]: 18% | inhibition [16]: 13% | inhibition ([17]; Compound concentration 0.3 uM): -0.894% | inhibition ([17]; Compound concentration 3.0 uM): -6.01% | inhibition [18]: 18.7% | inhibition [19]: 9.28% | inhibition [20]: 21.7% | inhibition [21]: 38% | inhibition [22]: 10.3% | inhibition [23]: 54.6% | inhibition [24]: 15.6% | inhibition [25]: 5.4% | inhibition [26]: 8.86% | inhibition (Rattus norvegicus): 35.6% | qKD [27]: 5.3 nM
SMILES: COc1nc2ccc([C@@](O)(c3ccccc3)C3CCN(C(C)=O)CC3)cc2c(Cl)c1Cc1ccc(-n2cccn2)cc1 [JNJ-54119936]
